Experimental data published in ChEMBL document CHEMBL1201862, “PubChem BioAssay data set” (2004).
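Values below derive from 48-hour exposures of cells grown in 96-well plates, with endpoints linearly interpolated between the two concentrations bracketing the appropriate inhibition level. Abbreviation: GI50, concentration required for 50% inhibition of growth.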 Calls of active or inactive are those of the source. Rule as the data show it: active = GI50 up to about 1.1 µM and inactive = higher.

Tests used:
Experiment in all cases: growth of human tumour cells (NCI), 48 h
[1] = test system: OVCAR-5
[2] = test system: RPMI-8226
[3] = test system: LOX IMVI
[4] = test system: NCI-H522
[5] = test system: SF-295
[6] = test system: HOP-92
[7] = test system: MDA-MB-435
[8] = test system: NCI/ADR-RES
[9] = test system: CAKI-1
[10] = test system: SK-OV-3
[11] = test system: SF-539
[12] = test system: RXF 393
[13] = test system: NCI-H23
[14] = test system: SK-MEL-5
[15] = test system: NCI-H226
[16] = test system: HL-60
[17] = test system: HOP-62
[18] = test system: SW-620
[19] = test system: NCI-H460
[20] = test system: HCT-116

Measured: GI50

COC1(CC[C@@H](C)COC2OC(CO)C(O)C(O)C2O)O[C@H]2C[C@H]3[C@@H]4CC=C5C[C@@H](OC6OC(CO)C(OC7OC(C)C(O)C(O)C7O)C(O)C6OC6OC(C)C(O)C(O)C6O)CC[C@]5(C)[C@H]4CC[C@]3(C)[C@H]2[C@@H]1C (some centres not stated)
inactive: [1] 4.41 µM | [2] 6.62 µM | [3] 1.73 µM | [4] 2.08 µM | [5] 2.82 µM | [6] 3.25 µM | [7] 2.02 µM | [8] 3.18 µM | [9] 1.53 µM | [10] 1.66 µM | [11] 1.89 µM | [12] 3.41 µM | [13] 3.97 µM | [14] 6.12 µM | [15] 9.18 µM | [16] 18.2 µM | [17] 2.56 µM | [18] 1.14 µM

CCC/C(Cl)=N/OC(NC(=O)OCC)(C(F)(F)F)C(F)(F)F
inactive: [19] > 100 µM | [1] 16.4 µM | [2] 23.1 µM | [3] 17.9 µM | [4] > 100 µM | [5] > 100 µM | [6] 20.3 µM | [7] 18.6 µM | [8] 34.5 µM | [9] 20.6 µM | [11] 16.7 µM | [12] 19 µM | [13] 25.1 µM | [14] 23.8 µM | [15] > 100 µM | [16] 17.4 µM | [17] > 100 µM | [18] 19.8 µM | [20] 19.4 µM

CCOC(=O)c1nc2cc(C(F)(F)F)ccc2nc1Oc1ccc(C#N)cc1
inactive: [19] > 100 µM | [1] > 100 µM | [2] 54.3 µM | [3] 71.8 µM | [4] > 100 µM | [5] > 100 µM | [6] > 100 µM | [7] > 100 µM | [8] > 100 µM | [9] > 100 µM | [11] > 100 µM | [12] 19.1 µM | [14] 92.5 µM | [15] > 100 µM | [16] 71.8 µM | [18] > 100 µM | [20] 16.8 µM

CC1=NN=C(N)N/C1=C\C(Sc1ccc(Cl)cc1)c1ccc(Cl)cc1Cl (configuration not stated)
inactive: [19] 8.77 µM | [1] 15.9 µM | [2] 14.1 µM | [3] 14.3 µM | [4] 3.79 µM | [5] 16.9 µM | [6] 9.71 µM | [7] 18.1 µM | [8] 17.6 µM | [9] 25.4 µM | [10] 18.3 µM | [12] 16.3 µM | [13] 13.1 µM | [14] 14.8 µM | [15] 15.1 µM | [16] 3.74 µM | [17] 23.8 µM | [18] 17.2 µM | [20] 8.02 µM

Cc1ccc2nc(-c3ccc(NC(=O)c4ccc(N)cc4)c(S(=O)(=O)O)c3)sc2c1
inactive: [19] > 100 µM | [1] > 100 µM | [2] > 100 µM | [3] > 100 µM | [4] > 100 µM | [5] > 100 µM | [6] > 100 µM | [7] > 100 µM | [8] > 100 µM | [9] > 100 µM | [10] > 100 µM | [12] > 100 µM | [13] > 100 µM | [14] > 100 µM | [15] > 100 µM | [16] > 100 µM | [17] > 100 µM | [18] > 100 µM | [20] > 100 µM
